{
  "source": "patent US20110300628A1",
  "about": "“ENHANCEMENT OF EPIDERMAL CELL GROWTH BY NON-PROTEIN GROWTH FACTORS” (priority 2010, published 2011)",
  "key": {"keratinocyte cells": {"test_system": "keratinocyte cells", "conditions": "low calcium (0.03 mM) or calcium-free, serum-free medium; cited from earlier work"}, "[1]": {"test_system": "normal human keratinocytes (NHK cells)", "experiment": "Clonal growth assay of normal human keratinocytes in serum-free chemically defined medium", "type": "cell-based", "conditions": "for clonal growth of NHK relative to control medium supplemented with IGF-1 and EGF: additive in combination with IGF-1 (5 ng/mL), no EGF, 10 days after plating, diBcAMP 0.1 mM, LiCl 10 mM, PGE1 10 μg/ml; for clonal growth of NHK relative to culture medium supplemented with EGF plus IGF-1: 10 days; for replacement of protein growth factor requirement for clonal growth of NHK: serum-free medium, 10 days clonal growth; for effect on clonal growth in high (3×) levels of the six key amino acids: 3× amino acids", "method": "The methods for isolating and culturing primary and secondary-passaged normal human neonatal normal human keratinocyte (NHK cells) were those previously employed (Wille et al., 1984). For the purpose of the present invention, secondary serially-passaged cultures were plated at 500 cells/cm in a novel serum-free basal media previously disclosed (Wille J. J., U.S. Pat. No. 5,586,307). This basal nutrient defined culture medium was supplemented either singly with the following additives: diBCAMP (1×10−4 M), LiCl (10 mM), and PGE1 ([…]). All dishes were fixed ten days later, stained with crystal violet stain (0.2%) and photographed."}},
  "data": [
    {"smiles": "[Sr+2]", "note": "[Strontium ions (Sr 2+)]", "values": [
      {"measurement": "concentration of maximal enhancement of cell viability and increase in cell number", "setting": "keratinocyte cells", "result": "1.0 to 2.0", "unit": "mM"}
    ]},
    {"smiles": "CCCCC[C@H](O)/C=C/[C@H]1[C@H](O)CC(=O)[C@@H]1CCCCCCC(=O)O", "note": "[PGE1, Prostaglandin E1]", "values": [
      {"measurement": "clonal growth of NHK relative to control medium supplemented with IGF-1 and EGF", "setting": "[1]", "result": "significantly enhanced"},
      {"measurement": "clonal growth of NHK relative to culture medium supplemented with EGF plus IGF-1", "setting": "[1]; in combination with both EGF and IGF-1", "result": "significantly enhanced"},
      {"measurement": "clonal growth in elevated (3×) levels of the six key amino acids relative to lower (1×) levels", "setting": "[1]; in the presence of insulin (5 μg/mL) and EGF (10 ng/mL)", "result": "significant enhancement"},
      {"measurement": "replacement of protein growth factor requirement for clonal growth of NHK", "setting": "[1]", "result": "can replace both EGF and IGF-1"},
      {"measurement": "clonal growth of NHK relative to culture medium supplemented with EGF plus IGF-1", "setting": "[1]; single addition to medium unsupplemented by any protein growth factors", "result": "significantly enhanced"}
    ]},
    {"smiles": "[Cl-].[Li+]", "note": "[Li+ ions, Lithium chloride]", "values": [
      {"measurement": "multiplication of human keratinocyte cells", "setting": "[1]; 10 mM, serum-free chemically defined medium", "result": "stimulate"},
      {"measurement": "effect on clonal growth in low (1×) levels of the six key amino acids", "setting": "[1]; 1× amino acids, with protein growth factors", "result": "growth-enhancing effects"},
      {"measurement": "effect on clonal growth in high (3×) levels of the six key amino acids", "setting": "[1]; with protein growth factors, listed as lithium ions", "result": "lost"},
      {"measurement": "effect on clonal growth in high (3×) levels of the six key amino acids", "setting": "[1]; with protein growth factors, listed as lithium ions (Li+)", "result": "no enhancement"},
      {"measurement": "clonal growth of NHK relative to control medium supplemented with IGF-1 and EGF", "setting": "[1]", "result": "significantly enhances"},
      {"measurement": "replacement of protein growth factor requirement for clonal growth of NHK", "setting": "[1]", "result": "can replace EGF"},
      {"measurement": "replacement of protein growth factor requirement for clonal growth of NHK", "setting": "[1]; listed as Lithium ions", "result": "completely replaced EGF"}
    ]},
    {"smiles": "CCCC(=O)Nc1ncnc2c1ncn2[C@@H]1O[C@@H]2COP(=O)(O)O[C@H]2[C@H]1OC(=O)CCC", "note": "[diBcAMP, dibutryl-3′-5′-adenosine monophosphate]", "values": [
      {"measurement": "clonal growth of NHK relative to control medium supplemented with IGF-1 and EGF", "setting": "[1]", "result": "significantly enhanced"},
      {"measurement": "clonal growth of NHK relative to control medium supplemented with IGF-1 and EGF", "setting": "[1]; listed as diBCAMP", "result": "does enhance"},
      {"measurement": "replacement of protein growth factor requirement for clonal growth of NHK", "setting": "[1]", "result": "can replace EGF"}
    ]}
  ]
}
